Data as given in EP3748362A1, “IN VITRO METHOD FOR DETECTING RENAL DISEASE” (Fundacion Instituto De Investigacion Sanitaria Fundacion …, priority 2019, dated 2020).

What was measured:
NF-κB2 [1] = experiment: Non-canonical NF-κB2 activation (western blot) in TWEAK-stimulated HK2 cells; type: cell-based, Human; conditions: 12 µM paricalcitol for 48 hours, TWEAK 100 ng/ml 6 hours
Method: (§1) Human kidney proximal tubule epithelial cells (HK2 cell line, ATCC CRL-2190) were grown in RPMI 1640 with 10% fetal bovine serum (FBS), 1% glutamine, 100 U/ml penicillin, 100 µg/ml streptomycin, 5 µg/ml insulin-transferrin-selenite and 36 ng/ml hydrocortisone in 5% CO2 at 37° C. When cells reached 60 to 70% confluence, they were serum-depleted for 24 hours before the experiment.
(§2) Cells were stimulated with 100ng/ml recombinant human soluble TWEAK (Millipore) or p-200 µg/ml cresyl-sulfate (Raymond Vanholder and Griet Glorieux, University of Gent, Belgium). Concentrations of TWEAK and p-cresyl-sulfate were based on previously published dose-response experiments (Poveda et al. 2014; Sanz et al. 2008). In some experiments cells were preincubated for 48 hours with the paricalcitol 12 µmol/L (Abbott) prior to stimulation. DMSO, used as a solvent in some cases, had no effect on cell viability or on gene expression levels.
(§3) For western blot, cell (25 µg/lane) and kidney (100-150 µg/lane) protein extracts were separated on 6%-12% polyacrylamide-SDS gels under reducing conditions. […] Autoradiographs were scanned using the Gel Doc™ EZ imager and analyzed with the Image Lab 3.0 software (BioRad).

TRAF3 [2] = experiment: TRAF3 western blot in TWEAK-stimulated PBMCs from healthy donors; type: cell-based, Human; conditions: paricalcitol 15 umol/L 48 hours before TWEAK 100 ng/ml for 24 hours
NF-κB2 [3] = experiment: Non-canonical NF-κB2 activation and NF-κB2 targets in kidneys of TWEAK-injected mice; type: in vivo
Method: (§4) All animal procedures were performed according to the guidelines of animal research in the European Community and with prior approval by the Ethics Committee of the Health Research of the IIS-Fundacion Jiménez Díaz. For in vivo studies, mice received a daily intraperitoneal injection of the VDRA Paricalcitol starting 48 hours prior to induction of kidney damage.
(§5) At the time of sacrifice, animals were anesthetized with 5 mg/kg xylazine (Rompun, Bayer AG) and 35 mg/kg ketamine (Ketolar, Pfizer) and the kidneys perfused in situ with cold saline before removal. Then, kidney portions were fixed in formalin buffer for immunohistochemistry studies or immediately frozen in liquid nitrogen for gene and protein studies.
TWEAK administration: C57BL/6 female mice (9-12 weeks, weight 20 g, 7-8 animals per group), received a single intraperitoneal injection of 0.5 µg TWEAK dissolved in saline and were sacrificed 24 hours later, as previously described (Sanz et al. 2008). Controls were injected with the saline vehicle (n=8-10 mice per group). TWEAK endotoxin level were <0.1 ng/mg, confirmed by MALDI-TOF. Some animals received paricalcitol 750 ng/kg/day, or the NF-κB2 inhibitor SN52, 0.7 mg/mouse/day, starting 48 hours before TWEAK administration. Animals were sacrificed 24 hours later. The dose of paricalcitol was chosen based on prior experience in mild inflammatory kidney conditions.
Paraffin-embedded kidney sections (3 µm) were stained using conventional methods. Antigen retrieval was performed by PTlink link system (Dako Diagnostics) with sodium citrate buffer (10 mmol/L) adjusted to pH 6-9 depending on the immunohistochemical marker, followed by immunohistochemical staining in a Dako Autostainer. Steps: 1) endogenous peroxidase blockade; 2) primary antibodies incubation; anti-CD3 (1:300; Dako) or anti-F4/80 (1:5000; Serotec); NF-κB p-p65 (1:200; Cell Signalling); NF-κB2 p52 (1:50; Cell Signaling); RelB (1:50; Santa Cruz Biotechnology); CCL21 (1:90; Santa Cruz Biotechnology); 3) washing; 4) DUOFLEX Doublestain EnVision™ treatment, using 3,3'-diaminobenzidine as chromogen. For F4/80 staining a rabbit anti-rat linker was used before EnVision. Sections were counterstained with Carazzi's hematoxylin. […] For each sample (processed by duplicate in a blinded manner), the average value was obtained from the analysis of 4 fields (20X objective) as density/mm2 or percentage stained area vs total analyzed area. Data are expressed as fold increase over control mice, as mean ± SEM of 8-10 animals per group. […]
For western blot, cell (25 µg/lane) and kidney (100-150 µg/lane) protein extracts were separated on 6%-12% polyacrylamide-SDS gels under reducing conditions. […] Autoradiographs were scanned using the Gel Doc™ EZ imager and analyzed with the Image Lab 3.0 software (BioRad). […]

[4] = system: CCL2, CCL5 and IL6, CCL21A and CCL19; experiment: Proinflammatory gene expression (real time PCR) in TWEAK-stimulated PBMCs from healthy donors; type: cell-based, Human; conditions: 15 µmol/L paricalcitol 48 hours, TWEAK 100 ng/mL 6 hours
NF-κB1 = experiment: Canonical NF-κB1 activation (western blot) in TWEAK-stimulated HK2 cells; type: cell-based, Human; conditions: 12 µM paricalcitol for 48 hours, TWEAK 100 ng/ml 15 min, p65 and IκBα phosphorylation
Method: as §1, §2, §3

TRAF3 [5] = experiment: Renal TRAF3 (western blot), unilateral ureteral obstruction in mice; type: in vivo; conditions: paricalcitol 750 ng/kg/day i.p., studied after 5 days
Method: as §4, §5
Unilateral ureteral obstruction (UUO) was established in male C57BL/6 mice, under isoflurane-induced anesthesia. […]
as §3

TWEAK-induced p52 and RelB DNA binding activities (NF-κB2 [3]; renal nuclear protein extracts, paricalcitol 750 ng/kg/day, ELISA): inhibited
Compound: C[C@H](/C=C/[C@H](C)C(C)(C)O)[C@H]1CC[C@H]2/C(=C/C=C3C[C@@H](O)C[C@H](O)C3)CCC[C@]12C [paricalcitol]
TWEAK-induced IKK-α phosphorylation, the increase in NIK, and p52 and RelB nuclear levels (NF-κB2 [1]): inhibited
TWEAK-induced TRAF3 degradation (TRAF3 [2]): inhibited
renal CCL21A and CCL19 gene expression (NF-κB2 [3]; paricalcitol 750 ng/kg/day or SN52 0.7 mg/mouse/day, real time PCR): reduced
TWEAK-induced NF-κB2 activation in the kidney: nuclear p52 and RelB accumulation in tubular epithelial cells (NF-κB2 [3]; paricalcitol 750 ng/kg/day, immunohistochemistry, western blot): reduced
CCL21 protein levels (NF-κB2 [3]; total kidney proteins, paricalcitol 750 ng/kg/day, western blot): reduced
TWEAK-induced upregulation of several proinflammatory genes, such as CCL2, CCL5 and IL6, as well as the NF-κB2-controlled genes CCL21A and CCL19 [4]: inhibited
TWEAK-induced NF-κB1 activation (NF-κB1): did not modulate
renal TRAF3 protein levels (TRAF3 [5]): restored renal TRAF3 protein levels to values of control mice
